{"source": "patent US11045456B2", "about": "“Compositions and methods for treating COPD and other inflammatory conditions” (Georgia State University Research Foundation, Inc., priority 2015, dated 2021)", "key": {"PDE4B [1]": {"tested_on": "PDE4B", "assay": "PDE4B mRNA expression (Q-PCR) in BEAS-2B cells stimulated with NTHi", "format": "cell-based, human", "conditions": "for PDE4B mRNA expression: BEAS-2B, relative to control", "experimental": "(§1) Bacterial strains and culture condition. Clinical isolates of NTHi strain 12 were used in this study (Ishinaga et al., EMBO J., 26(4):1150-1162, 2007). Bacteria were grown on chocolate agar plates at 37° C. in an atmosphere of 5% CO2 overnight and subsequently inoculated in brain heart infusion (BHI) broth supplemented with 3.5 μg/mL NAD and hemoglobin (BD Biosciences). After overnight incubation, the bacteria were subcultured into fresh broth and the log phase bacteria, monitored by measurement of optical density (OD) value, were washed and suspended in DMEM for in vitro cell experiments and in isotonic saline for in vivo animal experiments. For all in vitro experiments except the dose dependent experiment, NTHi was treated at multiplicity of infection (MOI) of 50.\n(§2) Cell culture. All media described below were supplemented with 10% fetal bovine serum (Sigma-Aldrich). Human bronchial epithelial BEAS-2B cells were maintained in RPMI medium (Life Technologies) (ATCC® CRL-9609™). Human primary bronchial epithelial NHBE (Lonza) cells were maintained in bronchial epithelial growth media (BEGM) supplemented with BEGM SingleQuots (Jono et al., J. Biol. Chem. 277(47):45547-45557, 2002). BEAS-2B cells stably expressing human PDE4B2 (PDE4B2-stable cells) were obtained by plasmid transfection following Geneticin selection (300 μg/mL). Cells were cultured in a humidified atmosphere of 5% CO2 at 37° C."}, "[2]": {"tested_on": "CCL5, CCL7, CXCL10, CXCL11, IL-8, GM-CSF and TNF-α", "assay": "NTHi-induced expression of pro-inflammatory mediators in BEAS-2B cells", "format": "cell-based, human", "experimental": "as §1, with “Clinical isolates of NTHi strain 12 were used in this study (Ishinaga et al., EMBO J., 26(4):1150-1162, 2007).” left out\nCell culture. All media described below were supplemented with 10% fetal bovine serum (Sigma-Aldrich). […] BEAS-2B cells stably expressing human PDE4B2 (PDE4B2-stable cells) were obtained by plasmid transfection following Geneticin selection (300 μg/mL). Cells were cultured in a humidified atmosphere of 5% CO2 at 37° C."}, "PDE4B2 [3]": {"tested_on": "PDE4B2", "assay": "PDE4B2 protein expression (Western blot) in mouse lung tissue extracts", "format": "in vivo", "conditions": "NTHi and roflumilast", "protocol": "(§3) Western blot. Whole-cell extracts and mouse lung tissue extracts were recovered with lysis buffer (50 mM Tris-HCl at pH7.4, 1% NP40, 0.25% deoxycholate, 150 mM NaCl, 1 mM EDTA, 1 mM NaF, supplemented with 1 mM Na3VO4 and PIC). For PDE4B protein, cell extracts were recovered with Buffer A as described above. Cell or tissue extracts were separated on 8% SDS-PAGE gels and transferred to polyvinylidene difluoride (PVDF) membrane (GE Healthcare Life Sciences). The membrane was blocked with a solution of TBS containing 0.1% Tween 20 (TBS-T) and 5% non-fat dry milk. The membrane was then incubated in a 1:1,000-1:2,000 dilution of a primary antibody in 5% BSA-TBS-T. After washing (×3) with TBS-T, the membrane was incubated with a 1:5,000 dilution of the corresponding secondary antibody in 2.5% non-fat dry milk-TBS-T. Respective proteins were visualized using Amersham ECL Prime Regent (GE Healthcare Life Sciences).\nMice and animal experiments. […]\nImmunofluorescent staining. Formalin-fixed paraffin-embedded mouse lung tissue was sectioned (4 μm) and PDE4B protein was detected using a rabbit anti-PDE4B and an FITC-conjugated goat anti-rabbit IgG (Santa Cruz Biotechnology). Stained sections were then imaged, and images were recorded under light- and fluorescence-microscopy systems (AxioVert 40 CFL, AxioCam MRC, and AxioVision LE Image system, Carl Zeiss)."}, "PDE4B2 [4]": {"tested_on": "PDE4B2", "assay": "PDE4B2 protein expression (Western blot) in airway epithelial cell extracts", "format": "cell-based, human", "conditions": "NTHi and roflumilast", "protocol": "as §3"}, "PDE4D": {"tested_on": "PDE4D", "assay": "Expression of PDE4D in BEAS-2B cells", "format": "cell-based, human", "conditions": "NTHi or roflumilast"}, "[5]": {"tested_on": "CCL5, CCL7, CXCL10 and CXCL11", "assay": "NTHi-induced chemokine expression in PDE4B2-stable cells", "format": "cell-based, human"}, "PDE4B [6]": {"tested_on": "PDE4B", "assay": "PDE4B mRNA expression in lung tissues of NTHi-inoculated mice", "conditions": "mice, Rof 5 mg/kg i.p. 2 hours before intratracheal NTHi 5×10^7 cfu per lung, after 5 hours"}, "PDE4": {"tested_on": "PDE4", "conditions": "estimated; Bender and Beavo; cited from earlier work"}, "p65": {"tested_on": "p65", "assay": "p65 phosphorylation by Phos-tag PAGE in BEAS-2B cells", "format": "cell-based, human", "conditions": "roflumilast as co-treatment with NTHi", "experimental": "Phos-tag PAGE. Recombinant p65 proteins or nuclear extracts recovered without EDTA/EGTA were separated by SDS-PAGE, with 6% gels containing 50 μM Mn^2+-Phos-tag Acrylamide and transferred to PVDF membrane according to the manufacture's instructions (Kinoshita et al., Mol. Cell. Proteomics 5(4):749-757, 2006."}, "NF-κB promoter": {"tested_on": "NF-κB promoter", "assay": "IKKβ-CA-induced NF-κB promoter activity (luciferase) in PDE4B2-transfected cells", "format": "cell-based, human", "conditions": "up to 10 μM", "protocol": "(§4) Plasmids, transfections and luciferase assay. […] Empty vector was used as a control and was also added where necessary to ensure an equivalent amount of input DNA. All transient transfections were carried out in triplicate using TRANSIT-LT1® reagent (Minis) following the manufacturer's instruction."}, "PDE4B2 [7]": {"tested_on": "PDE4B2", "assay": "PDE4B2 expression (RT-PCR) in BEAS-2B cells", "format": "cell-based, human", "experimental": "as §1, §2\nPlasmids, transfections and luciferase assay. The expression plasmids, constitutively active forms of IKKα (IKKα-CA, S176E/S180E) and IKKβ (IKKβ-CA, S177E/S181E) and a dominant negative form of IκBα (IκBα-DN, S32A/S36A) were previously described (Shuto et al., Proc. Natl. Acad. Sci. USA, 98(15):8774-8779, 2001; Ishinaga et al., supra). Luciferase reporter construct of NF-κB (pGL4.32) was purchased from Promega. Human PDE4B2, p65 (RelA) and PKA-Cβ1/2 cDNA sequences were generated and inserted into the BamHI and HindIII sites of the pcDNA3.1/mycHis(−) vector. Mutant p65 and PDE4B2-D392A were generated by using PRIMESTAR® Max (Takara). Empty vector was used as a control and was also added where necessary to ensure an equivalent amount of input DNA. All transient transfections were carried out in triplicate using TRANSIT-LT1® reagent (Minis) following the manufacturer's instruction."}, "[8]": {"tested_on": "Group A chemokines (CCL5, CCL7, CXCL10, CXCL11)", "assay": "IKKβ-CA-induced Group A-chemokine expression in PDE4B2-transfected cells", "format": "cell-based, human", "conditions": "up to 10 μM", "protocol": "as §4"}, "PDE4B [9]": {"tested_on": "PDE4B", "assay": "PDE4B mRNA expression (Q-PCR) in primary NHBE cells stimulated with NTHi", "format": "cell-based, human", "conditions": "Rof 0.1 μM 1 hour, then 1.5-hour NTHi", "experimental": "as §1\nCell culture. All media described below were supplemented with 10% fetal bovine serum (Sigma-Aldrich). Human bronchial epithelial BEAS-2B cells were maintained in RPMI medium (Life Technologies) (ATCC® CRL-9609™). Human primary bronchial epithelial NHBE (Lonza) cells were maintained in bronchial epithelial growth media (BEGM) supplemented with BEGM SingleQuots (Jono et al., J. Biol. Chem. 277(47):45547-45557, 2002). BEAS-2B cells stably expressing human PDE4B2 (PDE4B2-stable cells) were obtained by plasmid transfection following Geneticin selection (300 μg/mL). […]"}, "p65 and PKA-Cβ": {"tested_on": "p65 and PKA-Cβ", "assay": "Co-immunoprecipitation of p65 and PKA-Cβ in BEAS-2B cells", "format": "cell-based, human", "conditions": "BEAS-2B cells transfected with p65 and PKA-Cβ; co-treatment of roflumilast with NTHi", "experimental": "Immunoprecipitation. Cell extracts were incubated with 1 μg of primary antibodies overnight at 4° C., followed by a 2 h incubation with protein G PLUS-agarose beads (Santa Cruz Biotechnology). Immunoprecipitates were then suspended in a sample buffer, separated on 8% SDS-PAGE gels, transferred to PVDF membrane, and detected by immunoblot analysis as described above."}, "[10]": {"conditions": "cells overexpressing PDE4B2-WT or PDE4B2-D392A"}, "[11]": {"conditions": "cells transfected with PDE4B2-D392A"}}}
{"smiles": "O=C(Nc1c(Cl)cncc1Cl)c1ccc(OC(F)F)c(OCC2CC2)c1", "note": "[roflumilast]", "values": [{"measurement": "PDE4B expression at the mRNA level", "setting": "PDE4B [1]; BEAS-2B cells, roflumilast with NTHi, Q-PCR, dose-dependent", "result": "synergized with NTHi to up-regulate PDE4B expression"}, {"measurement": "PDE4B mRNA expression", "setting": "PDE4B [1]; Rof 0.1 μM 1 h, then 1.5-hour NTHi at MOI of 25, 50, and 100", "result": "increased"}, {"measurement": "PDE4B mRNA expression", "setting": "PDE4B [1]; Rof 0.01, 0.1, and 1 μM 1 h, then 1.5-hour NTHi", "result": "increased"}, {"measurement": "NTHi-induced induction of CCL5, CCL7 and IL-8", "setting": "[2]; BEAS-2B cells", "result": "modestly suppressed"}, {"measurement": "NTHi-induced induction of TNF-α and GM-CSF", "setting": "[2]; BEAS-2B cells", "result": "markedly inhibited"}, {"measurement": "NTHi-induced CXCL10 and CXCL11 induction", "setting": "[2]; BEAS-2B cells, even at higher concentration", "result": "almost no inhibitory effect"}, {"measurement": "efficacy in suppressing Group A-chemokines", "setting": "[2]; in PDE4B-depleted but not in PDE4D-depleted cells", "result": "more efficacious"}, {"measurement": "~70-kDa PDE4B isoform (PDE4B2 protein)", "setting": "PDE4B2 [3]", "result": "induced an increase"}, {"measurement": "~70-kDa PDE4B isoform (PDE4B2 protein)", "setting": "PDE4B2 [4]", "result": "induced an increase"}, {"measurement": "expression of PDE4D", "setting": "PDE4D", "result": "up-regulated by NTHi or roflumilast but no significant synergistic effect"}, {"measurement": "NTHi-induced expression of CCL5, CCL7, CXCL10 and CXCL11 (Group A-chemokines)", "setting": "[5]; highest concentration tested (10 μM)", "result": "unable to fully inhibit"}, {"measurement": "NTHi-induced expression of CXCL10 and CXCL11", "setting": "[5]; lower dose of roflumilast (<1 μM)", "result": "slightly enhanced"}, {"measurement": "PDE4B mRNA expression in lung tissues", "setting": "PDE4B [6]", "result": "synergistically enhanced"}, {"measurement": "PDE4B mRNA expression in lung tissues", "setting": "PDE4B [6]; listed as Rof", "result": "significantly elevated"}, {"measurement": "IC50", "setting": "PDE4", "result": "< 1", "unit": "nM"}, {"measurement": "phosphorylation of p65 (induction)", "setting": "p65", "result": "induced phosphorylation of p65"}, {"measurement": "IKKβ-CA-induced NF-κB promoter activity", "setting": "NF-κB promoter; [10]", "result": "unable to fully inhibit"}, {"measurement": "IKKβ-CA-induced NF-κB promoter activity", "setting": "NF-κB promoter; [11]", "result": "unable to fully inhibit"}, {"measurement": "expression of PDE4B2", "setting": "PDE4B2 [7]; BEAS-2B, Rof 0.1 μM with NTHi or TNF-α (10 ng/mL), semi-quantitative RT-PCR", "result": "synergistically up-regulated"}, {"measurement": "PDE4B2 expression", "setting": "PDE4B2 [7]; cells transfected with p65 mutants S468A, S529A and S536A but not S276A, roflumilast and NTHi", "result": "synergistically enhanced"}, {"measurement": "PDE4B2 expression", "setting": "PDE4B2 [7]; in IKKβ-CA- but not IKKα-CA-transfected BEAS-2B cells", "result": "synergistically enhanced"}, {"measurement": "PDE4B2 expression", "setting": "PDE4B2 [7]; p65-transfected cells", "result": "synergistically enhanced"}, {"measurement": "IKKβ-CA-induced Group A-chemokine expression", "setting": "[8]; [10]", "result": "unable to fully inhibit"}, {"measurement": "IKKβ-CA-induced Group A-chemokine expression", "setting": "[8]; [11]", "result": "unable to fully inhibit"}, {"measurement": "PDE4B mRNA expression", "setting": "PDE4B [9]", "result": "increasing PDE4B mRNA significantly"}, {"measurement": "interaction of p65 and PKA-Cβ", "setting": "p65 and PKA-Cβ", "result": "enhanced"}]}
